ChEMBL document CHEMBL1138420, “Discovery of adamantane ethers as inhibitors of 11beta-HSD-1: Synthesis and biological evaluation” (Bioorg Med Chem Lett, 2007)

What was measured:
[1] = molecular target: T1, 11-beta-hydroxysteroid dehydrogenase 1 (Homo sapiens, UniProt P28845); experiment: Inhibition of human 11beta-HSD1 by SPA
[2] = molecular target: T2, 11-beta-hydroxysteroid dehydrogenase type 2 (Homo sapiens, UniProt P80365); experiment: Inhibition of human 11beta-HSD2 by SPA
T2 sequence (P80365 whole entry): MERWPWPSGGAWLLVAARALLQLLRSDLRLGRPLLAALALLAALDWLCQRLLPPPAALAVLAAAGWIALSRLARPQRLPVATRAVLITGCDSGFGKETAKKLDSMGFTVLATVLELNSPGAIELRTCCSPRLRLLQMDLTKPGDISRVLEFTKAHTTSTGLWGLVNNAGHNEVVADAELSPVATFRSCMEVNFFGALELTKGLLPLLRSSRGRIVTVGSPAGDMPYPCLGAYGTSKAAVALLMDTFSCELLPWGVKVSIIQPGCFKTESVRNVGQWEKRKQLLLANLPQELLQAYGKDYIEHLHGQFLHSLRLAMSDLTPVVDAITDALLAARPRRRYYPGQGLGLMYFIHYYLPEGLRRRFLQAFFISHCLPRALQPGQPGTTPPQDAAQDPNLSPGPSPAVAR

[3] = molecular target: 11-beta-hydroxysteroid dehydrogenase 1 (Mus musculus, UniProt P50172); experiment: Inhibition of mouse 11beta-HSD1 by SPA
Sequence of 11-beta-hydroxysteroid dehydrogenase 1 (Mus musculus, UniProt P50172) (P50172 whole entry): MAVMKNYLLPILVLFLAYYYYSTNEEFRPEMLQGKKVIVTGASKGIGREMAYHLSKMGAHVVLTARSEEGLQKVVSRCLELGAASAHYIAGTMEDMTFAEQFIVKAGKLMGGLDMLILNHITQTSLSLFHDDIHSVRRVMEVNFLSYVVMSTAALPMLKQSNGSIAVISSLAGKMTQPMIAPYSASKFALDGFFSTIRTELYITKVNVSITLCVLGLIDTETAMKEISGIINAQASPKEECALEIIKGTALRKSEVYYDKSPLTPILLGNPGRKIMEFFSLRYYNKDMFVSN

[4] = molecular target: T3, 11-beta-hydroxysteroid dehydrogenase type 2 (Mus musculus, UniProt P51661); experiment: Inhibition of mouse 11beta-HSD2 by SPA
T3 sequence (P51661 whole entry): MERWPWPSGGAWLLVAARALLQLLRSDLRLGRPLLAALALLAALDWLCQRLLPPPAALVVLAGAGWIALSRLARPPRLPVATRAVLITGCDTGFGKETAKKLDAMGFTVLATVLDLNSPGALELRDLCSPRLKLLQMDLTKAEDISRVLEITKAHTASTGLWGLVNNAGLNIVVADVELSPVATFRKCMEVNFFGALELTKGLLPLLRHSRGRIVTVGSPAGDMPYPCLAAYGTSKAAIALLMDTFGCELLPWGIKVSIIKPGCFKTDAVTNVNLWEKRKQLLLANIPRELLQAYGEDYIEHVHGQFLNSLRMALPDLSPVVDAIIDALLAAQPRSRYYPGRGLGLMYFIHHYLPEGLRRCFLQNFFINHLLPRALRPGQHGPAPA

[5] = molecular target: T1, 11-beta-hydroxysteroid dehydrogenase 1; experiment: Inhibition of human 11beta-HSD1 expressed in HEK293 cells by FPIA; type: cell-based
[6] = Metabolic stability in mouse liver microsome after 30 mins; type: ADME; settings: liver microsomes, read-out: Stability
[7] = Plasma clearance in ob/ob mouse at 5 mg/kg, iv or 10 mg/kg, po; type: ADME, organism-based
[8] = Half life in ob/ob mouse at 5 mg/kg, iv or 10 mg/kg, po; type: ADME, organism-based; settings: in vivo
[9] = Bioavailability in ob/ob mouse at 10 mg/kg; type: ADME, organism-based; settings: in vivo, oral
Mus musculus [10] = experiment: Ex vivo inhibition of 11beta-HSD1 in ob/ob mouse liver at 30 mg/kg, po after 1 hr; type: functional
Mus musculus [11] = experiment: Ex vivo inhibition of 11beta-HSD1 in ob/ob mouse liver at 30 mg/kg, po after 7 hrs; type: functional
Mus musculus [12] = experiment: Ex vivo inhibition of 11beta-HSD1 in ob/ob mouse liver at 30 mg/kg, po after 16 hrs; type: functional
Mus musculus [13] = experiment: Ex vivo inhibition of 11beta-HSD1 in ob/ob mouse fat at 30 mg/kg, po after 1 hr; type: functional
Mus musculus [14] = experiment: Ex vivo inhibition of 11beta-HSD1 in ob/ob mouse fat at 30 mg/kg, po after 7 hrs; type: functional
Mus musculus [15] = experiment: Ex vivo inhibition of 11beta-HSD1 in ob/ob mouse fat at 30 mg/kg, po after 16 hrs; type: functional
Mus musculus [16] = experiment: Ex vivo inhibition of 11beta-HSD1 in ob/ob mouse brain at 30 mg/kg, po after 1 hr; type: functional
Mus musculus [17] = experiment: Ex vivo inhibition of 11beta-HSD1 in ob/ob mouse brain at 30 mg/kg, po after 7 hrs; type: functional
Mus musculus [18] = experiment: Ex vivo inhibition of 11beta-HSD1 in ob/ob mouse brain at 30 mg/kg, po after 16 hrs; type: functional

T1 sequence (P28845 whole entry): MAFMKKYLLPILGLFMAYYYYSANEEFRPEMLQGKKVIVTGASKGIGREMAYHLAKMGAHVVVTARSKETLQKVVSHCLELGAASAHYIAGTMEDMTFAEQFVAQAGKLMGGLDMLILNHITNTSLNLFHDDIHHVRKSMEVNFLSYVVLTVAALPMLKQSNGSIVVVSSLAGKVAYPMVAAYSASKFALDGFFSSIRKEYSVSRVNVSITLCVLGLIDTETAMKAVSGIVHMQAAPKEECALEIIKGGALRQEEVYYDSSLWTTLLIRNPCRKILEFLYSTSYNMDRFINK

| Structure (SMILES) | IC50 [1] [nM] | IC50 [2] [nM] | IC50 [3] [nM] | IC50 [4] [nM] | IC50 [5] [nM] | remaining at 0.5 h [6] [%] | also measured |
| --- | --- | --- | --- | --- | --- | --- | --- |
| CC(C)(Oc1cccc(Cl)c1)C(=O)N[C@H]1C2CC3CC1C[C@](C(=O)O)(C3)C2 | 15 | 3500 | 51 | 540 | 190 | 100 |  |
| CC(C)(Oc1ccc(Cl)cc1)C(=O)N[C@H]1C2CC3CC1C[C@](C(=O)NCc1ccc(C(=O)O)cc1)(C3)C2 |  |  | 12 |  |  | 94 | inhibition in vivo at 30 mg/kg (Mus musculus [10]): 99%; inhibition in vivo at 30 mg/kg (Mus musculus [11]): 93%; inhibition in vivo at 30 mg/kg (Mus musculus [12]): 77%; inhibition in vivo at 30 mg/kg (Mus musculus [13]): 37%; inhibition in vivo at 30 mg/kg (Mus musculus [14]): 38%; inhibition in vivo at 30 mg/kg (Mus musculus [15]): 36% |
| CC(C)(Oc1ccc(Cl)cc1)C(=O)N[C@H]1C2CC3CC1C[C@](C(=O)NCc1ccc(C(=O)NS(C)(=O)=O)cc1)(C3)C2 |  |  |  |  |  | 51 |  |
| CC(C)(Oc1ccc(Cl)cc1)C(=O)N[C@H]1C2CC3CC1C[C@](C(=O)NCc1ccc(-c4nnn[nH]4)cc1)(C3)C2 |  |  | 18 |  |  | 51 |  |
| CC(C)(Oc1ccc(Cl)cc1)C(=O)N[C@H]1C2CC3CC1C[C@](C(=O)NCc1ccc(S(N)(=O)=O)cc1)(C3)C2 | 51 | > 30000 | 24 | 16000 | 300 | 35 | inhibition in vivo at 30 mg/kg (Mus musculus [10]): 45%; inhibition in vivo at 30 mg/kg (Mus musculus [11]): 55%; inhibition in vivo at 30 mg/kg (Mus musculus [12]): 58%; inhibition in vivo at 30 mg/kg (Mus musculus [13]): 15%; inhibition in vivo at 30 mg/kg (Mus musculus [14]): 18%; inhibition in vivo at 30 mg/kg (Mus musculus [15]): 5%; inhibition in vivo at 30 mg/kg (Mus musculus [16]): 0%; inhibition in vivo at 30 mg/kg (Mus musculus [17]): 0%; inhibition in vivo at 30 mg/kg (Mus musculus [18]): 18%; clearance [7]: 15 mL/min/kg; half-life [8]: 3.8 h; bioavailability [9]: 44% |
| CC(C)(Oc1ccc(Cl)cc1)C(=O)N[C@H]1C2CC3CC1C[C@](C(=O)NCc1ccncc1)(C3)C2 | 25 | 5300 | 14 | 19000 | 91 | 16 |  |
| CNC(=O)NC(=O)[C@]12CC3CC(C1)[C@@H](NC(=O)C(C)(C)Oc1ccc(Cl)cc1)C(C3)C2 |  |  | 8 |  |  |  |  |
| CC(C)(Oc1ccc(Cl)cc1)C(=O)N[C@H]1C2CC3CC1C[C@](COCC(=O)O)(C3)C2 | 110 | > 100000 | 210 | 45000 | 670 | 100 |  |
| CC(C)(Oc1ccc(F)cc1Cl)C(=O)N[C@H]1C2CC3CC1C[C@](c1nnn[nH]1)(C3)C2 |  |  | 10 |  |  | 87 |  |
| CC(C)(Oc1ccccc1Cl)C(=O)N[C@H]1C2CC3CC1C[C@](C(=O)NS(C)(=O)=O)(C3)C2 | 96 | 580 | 28 | 1200 | 744 | 94 |  |
| CC(C)(Oc1ccccc1Cl)C(=O)N[C@H]1C2CC3CC1C[C@](C(=O)NS(=O)(=O)c1ccccc1)(C3)C2 | 500 |  | 1000 |  |  |  |  |
| CC(C)(Oc1ccccc1)C(=O)N[C@H]1C2CC3CC1C[C@](C(=O)O)(C3)C2 |  |  | 119 |  |  | 98 |  |
| CC(C)(Oc1ccc(Cl)cc1)C(=O)N[C@H]1C2CC3CC1C[C@](C(=O)NCc1cncs1)(C3)C2 |  |  | 11 |  |  | 5 |  |
| CC(C)(Oc1ccc(Cl)cc1)C(=O)N[C@H]1C2CC3CC1C[C@](C(=O)O)(C3)C2 |  |  | 70 |  |  | 89 |  |

The next lines start with results.

| IC50 [1] [nM] | IC50 [2] [nM] | IC50 [3] [nM] | IC50 [4] [nM] | IC50 [5] [nM] | remaining at 0.5 h [6] [%] | Structure (SMILES) | also measured |
| --- | --- | --- | --- | --- | --- | --- | --- |
|  |  | 3 |  |  | 43 | CC(C)(Oc1ccc(Cl)cc1)C(=O)N[C@H]1C2CC3CC1C[C@](C(N)=O)(C3)C2 | clearance [7]: 70 mL/min/kg; half-life [8]: 0.3 h; bioavailability [9]: 20% |
| 8 | 1800 | 8 | 140 | 59 | 94 | CC(C)(Oc1ccccc1Cl)C(=O)N[C@H]1C2CC3CC1C[C@](C(=O)O)(C3)C2 | inhibition in vivo at 30 mg/kg (Mus musculus [10]): 81%; inhibition in vivo at 30 mg/kg (Mus musculus [11]): 76%; inhibition in vivo at 30 mg/kg (Mus musculus [12]): 35%; inhibition in vivo at 30 mg/kg (Mus musculus [13]): 67%; inhibition in vivo at 30 mg/kg (Mus musculus [14]): 47%; inhibition in vivo at 30 mg/kg (Mus musculus [15]): 6%; clearance [7]: 15 mL/min/kg; half-life [8]: 3.9 h; bioavailability [9]: 100% |
|  |  | 6 |  |  | 19 | CC(C)(Oc1ccc(Cl)cc1)C(=O)N[C@H]1C2CC3CC1C[C@](CO)(C3)C2 |  |
|  |  | 4 |  |  | 57 | COc1ccc(OC(C)(C)C(=O)N[C@H]2C3CC4CC2C[C@](C(N)=O)(C4)C3)cc1 |  |
|  |  | 4 |  |  | 78 | CC(C)(Oc1ccc(Cl)cc1)C(=O)N[C@H]1C2CC3CC1C[C@](C(=O)NCC(N)=O)(C3)C2 |  |
|  |  | 4 |  |  | 78 | CC(C)(Oc1ccccc1)C(=O)N[C@H]1C2CC3CC1C[C@](C(N)=O)(C3)C2 |  |
